The term MIC denotes the lowest concentration that inhibits growth of the organism.

Each structure is given as a SMILES string. Values after ≈ are worked out from the molar mass of the structure shown. Like-named read-outs stand apart in the source and are kept apart here.

Consider 24 molecules from article PMC11110795, “Design, synthesis and antimycobacterial activity of imidazo[1,5-a]quinolines and their zinc-complexes” (RSC Medicinal Chemistry, 2024).

Test [1] concerns Mycobacterium tuberculosis H37Ra. The experiment in a line: MIC, BacTiter-Glo ATP quantification, surrogate Mtb strain. The test is classed as cell-based. As to conditions: for MIC: Mycobacterium tuberculosis, H37RA, 168 h, read-out: MIC Mtb, Mycobacterium tuberculosis H37Ra, 7H9-palmitate, 7 days, BacTiter-Glo, n=3; for MIC Mtb: Mycobacterium tuberculosis H37Ra, 7H9-palmitate, 7 days, BacTiter-Glo, n=3. On the procedure:
The antimicrobial effect of the 21 synthesized compounds was initially accessed against a panel of 4 microbial indicator strains (Escherichia coli ATCC35218, Staphylococcus aureus ATCC33592, Septoria tritici MUCL45408 and Mycobacterium tuberculosis H37Ra). Cytotoxicity was investigated using an epithelia cell line from human lung carcinoma (Calu-3).
The minimum inhibitory concentration (MIC) of the […] compounds 5a-i, 6a-b,7a, 8a and C1-8 was determined as previously described with only minor changes. 6,7 Briefly, the cell density of an overnight cultures of Escherichia coli ATCC35218 and Staphylococcus aureus […] was diluted to 5 × 10^5 cells/mL in cation adjusted Mueller Hinton II medium (Becton Dickinson, Sparks, NV, USA) and distributed into 96-well plates. Three 12-point dilution series of rifampicin, tetracycline and gentamicin ranging from 64 - 0.03 µg/mL (all Sigma Aldrich, St. Louis, MO, USA), respectively, were used as positive controls. All tested compounds were dissolved in dimethyl sulfoxide (DMSO, Carl Roth GmbH + Co., Karlsruhe, Germany) and tested in triplicate at the same concentrations as the positive controls.
Bacterial suspensions without test compound or positive control were used as negative controls.
Medium background was averaged from 5 replicates. Assay incubation was done at 37°C, 180rpm and 85% relative humidity. The turbidity of each well was measured with a microplate spectrophotometer at 600 nm (LUMIstar® Omega BMG Labtech, Ortenberg, Germany). Growth inhibition was calculated relative to the absorption of the controls.
For S. tritici MUCL45408, a previously prepared spore solution was used to adjust the assay inoculum to 1 × 10^5 spores/mL in potato dextrose medium (Sigma Aldrich). Septoria assay plates were incubated for 4 days at 25°C, 180 rpm and 85% rH. Tebuconazole (Cayman Chemical Company, Ann Arbor, MI, USA) and amphotericin B (Sigma Aldrich) were used as positive control. Cell viability was evaluated via ATP quantification (BacTiter-Glo™, Promega, Walldorf, Germany) according to the manufacturer’s […]
Mycobacterium tuberculosis ITM-M006710 H37Ra (ATCC 9431) was incubated for 14 days in Middlebrook 7H9 broth (from ThermoFisher Scientific, Walthman, MA, USA) supplemented with 5.6 µg/mL palmitic acid (Sigma Aldrich), 1 mg/mL casitone (ThermoFisher Scientific), 5mg/mL BSA, 4µg/mL catalase (Sigma Aldrich), and 0.2% glycerol at 37°C, 180 rpm and 85% rH. In a first step, the culture was diluted to McFarland standard of 1, before the final inoculum density of a 1 × 10^6 cells/mL was obtained by further dilution with freshly prepared medium. Individual 12-point dilution series of rifampicin, ampicillin and gentamicin (ranging from 64-0.03 µg/mL) were used as positive controls. The assay plates were incubated for 7 days under microaerophilic conditions at 37°C/5% CO2 (BD gaspak CO2 system) and read-out was done by ATP quantification (s. above).
The MIC was defined as the minimum concentration where at least 85% growth inhibition relative to the negative control was measured. Relative inhibition for the microtiter turbidity tests (MTT) were […]
rel. inh.% = 100 * [1- (AU sample - AU Low)/(AU High - AU Low)]
AU: absorption unit at 600nm; Low: medium blank; High: negative control of maximal growth.
Accordingly, the BacTiter-Glo™ (BTG) assays were calculated as rel. inh.% = 100 * [1- (LU sample - LU Low)/(LU High - LU Low)]
AU: luminescence unit; Low: medium blank; High: negative control of maximal growth.
For Mycobacterium tuberculosis ATCC 35801 a resazurin microtiter assay was carried out as previously described8 Briefly, assay plates were set up by transferring 10 µl of compounds form a 1:2-fold dilution series in distilled and sterile water to a 96-well plate. The final assay´s concentrations range from 0.39-100 µM and as positive and negative control 5 µM rifampicin and 0.5% DMSO were used. Subsequently a bacterial suspension with Mycobacterium tuberculosis with a final OD560 of 0.0003 was prepared in […]

For the next test, the system named is various Mtb strains. The arrangement: method as in PMID 27654337, PMID 29900893, PMID 36934122, PMID 32750539. As to conditions: cited from earlier work.
In test [2] the test system is Septoria tritici MUCL45408. The experiment in a line: MIC, BacTiter-Glo ATP quantification. The class given is cell-based. The note with it: read-out: MIC Str.
In test [3] the test system is Staphylococcus aureus ATCC33592. The experiment in a line: MIC, microtiter turbidity test. The test is classed as cell-based. The note with it: read-out: MIC Sa.
Test [4] relates to Escherichia coli ATCC35218. The experiment in a line: MIC, microtiter turbidity test. The test is classed as cell-based.
[5] abbreviates: Septoria tritici MUCL45408, PDB medium, 4 days, BacTiter-Glo, n=3.
The mark [6] stands for this setting: Zymoseptoria tritici, 96 h, Septoria tritici MUCL45408, PDB medium, 4 days, BacTiter-Glo, n=3.
The mark [7] stands for this setting: ATCC 33592 / MRSA, Staphylococcus aureus ATCC33592 (MRSA), MHII medium, turbidity at 600 nm, n=3.
Where [8] appears, read: Staphylococcus aureus ATCC33592 (MRSA), MHII medium, turbidity at 600 nm, n=3.
Where [9] appears, read: Escherichia coli ATCC35218, MHII medium, turbidity at 600 nm, n=3, read-out: MIC Ec.
Where [10] appears, read: Zymoseptoria tritici, MUCL45408, 96 h.
Setting [11] is: Staphylococcus aureus, ATCC 33592 / MRSA.
The mark [12] stands for this setting: Escherichia coli, ATCC35218, read-out: MIC Ec.

Consider `CC1(C)S[C@@H]2[C@H](NC(=O)[C@H](N)c3ccccc3)C(=O)N2[C@H]1C(=O)O` [AMP, ampicillin, reference compound], for which the minimal inhibitory concentration (MIC) in test [1] came out at 184 µM (≈ 64.3 µg/mL).

`NCC[C@H](O)C(=O)N[C@@H]1C[C@H](N)[C@@H](O[C@H]2O[C@H](CN)[C@@H](O)[C@H](O)[C@H]2O)[C@H](O)[C@H]1O[C@H]1O[C@H](CO)[C@@H](O)[C@H](N)[C@H]1O` [amikacin]: the “MIC, literature reported values” in the test with various Mtb strains is 0.4 to 1.7 µM.

`c1ccc(-c2nc(-c3cccc4ccccc34)n3c2ccc2ccccc23)nc1` [7a]: the MIC in test [2] (setting [5]), in test [2] (setting [6]), in test [3] (setting [7]), in test [3] (setting [8]) and in test [4] (setting [9]) was above 172 µM in each case.

Turning to `[Cl-].[Cl-].[Zn+2]` [ZnCl2, reference compound], the “MIC Mtb” value in test [1] is 235 µM. Moreover, the MIC in test [3] (setting [8]) and in test [4] (setting [9]) was above 470 µM each time.

Consider `c1ccc(-c2nc(-c3ccccc3)n3c2ccc2ccccc23)cc1` [5b], for which the MIC in test [2] (setting [5]), in test [2] (setting [6]), in test [1], in test [3] (setting [7]), in test [3] (setting [8]) and in test [4] (setting [9]) was above 200 µM throughout. For the same molecule, the “MIC Mtb” value in test [1] was above 200 µM.

Regarding `CC(=O)[O-].CC(=O)[O-].[Cu+2]` [Cu(OAc)2, reference compound], in test [1], the “MIC Mtb” value worked out at 43 µM.

Turning to `c1ccc(-c2ccc(-c3nc(-c4ccccc4)n4c3ccc3ccccc34)nc2)cc1` [5f], the MIC is above 136 µM in test [2] (setting [5]); above 136 µM in test [2] (setting [6]); 34 µM (≈ 13.5 µg/mL) in test [1]; above 136 µM in test [3] (setting [7]); above 136 µM in test [3] (setting [8]); above 136 µM in test [4] (setting [9]).

With `C[C@@H]1[C@H](O)[C@@H](C)/C=C/C=C/C=C/C=C/C=C/C=C/C=C/[C@H](O[C@@H]2O[C@H](C)[C@@H](O)[C@H](N)[C@@H]2O)C[C@@H]2O[C@](O)(C[C@@H](O)C[C@@H](O)[C@H](O)CC[C@@H](O)C[C@@H](O)CC(=O)O[C@H]1C)C[C@H](O)[C@H]2C(=O)O` [AMB, amphotericin B, reference compound], the MIC in test [2] (setting [6]) was determined as 0.135 µM (≈ 0.125 µg/mL).

`COc1ccccc1-c1nc(-c2ccccc2)n2c1ccc1ccccc12` [5i]: the MIC was above 183 µM in test [2] (setting [5]); above 183 µM in test [2] (setting [6]); 46 µM (≈ 16.1 µg/mL) in test [1]; above 183 µM in test [3] (setting [7]); above 183 µM in test [3] (setting [8]); above 183 µM in test [4] (setting [9]).

In the case of `c1ccc(-c2nc(-c3ccccn3)n3c2ccc2ccccc23)cc1` [6b], the MIC in test [2] (setting [5]), in test [2] (setting [6]), in test [3] (setting [7]), in test [3] (setting [8]) and in test [4] (setting [9]) was above 199 µM in each case.

Consider `CC(C)(C)C(O)(CCc1ccc(Cl)cc1)Cn1cncn1` (stereo not shown) [TEB, tebuconazole, reference compound], for which, in test [2] (setting [10]), the MIC is above 0.01 µM.

Take `c1ccc(-c2nc(-c3cccs3)c3ccc4ccccc4n23)cc1` [5a]: the minimal inhibitory concentration (MIC) in test [2] (setting [5]), in test [2] (setting [10]), in test [1], in test [3] (setting [8]), in test [3] (setting [11]) and in test [4] (setting [9]) was above 196 µM throughout. The MIC in test [4] (setting [12]) was above 196 µM. The “MIC Mtb” value in test [1] was above 196 µM.

As for `C[C@H]1COc2c(N3CCN(C)CC3)c(F)cc3c(=O)c(C(=O)O)cn1c23` [levofloxacin], the “MIC, literature reported values” with various Mtb strains was 0.8 to 1.4 µM.

For the molecule `CC[C@@H](CO)NCCN[C@@H](CC)CO` [ethambutol], the “MIC, literature reported values” with various Mtb strains is 0.3 to 3 µM.

With `c1ccc(-c2nc(-c3ncccn3)c3ccc4ccccc4n23)cc1` [5e], the MIC is above 148 µM in test [2] (setting [5]); above 148 µM in test [2] (setting [6]); 1 µM (≈ 0.322 µg/mL) in test [1]; above 148 µM in test [3] (setting [7]); above 148 µM in test [3] (setting [8]); above 148 µM in test [4] (setting [9]).

Turning to `c1ccc(-c2nc(-c3ccccn3)c3ccc4ccccc4n23)cc1` [5c], the MIC in test [2] (setting [5]) is above 199 µM; in test [2] (setting [6]), above 199 µM; in test [1], 25 µM (≈ 8.03 µg/mL); in test [3] (setting [7]), above 199 µM; in test [3] (setting [8]), above 199 µM; in test [4] (setting [9]), above 199 µM.

Regarding `c1ccc(N(c2ccccc2)c2nc(-c3ccccn3)c3ccc4ccccc4n23)cc1` [8a], the MIC in test [2] (setting [5]), in test [2] (setting [10]), in test [1], in test [3] (setting [8]), in test [3] (setting [11]) and in test [4] (setting [9]) was above 155 µM in each case. Also, the MIC in test [4] (setting [12]) is above 155 µM. Besides, in test [1], the “MIC Mtb” value was above 155 µM.

With `c1ccc(-c2nc(-c3ccccn3)n3c2ccc2ccccc23)nc1` [6a], the MIC in test [2] (setting [5]), in test [2] (setting [6]), in test [3] (setting [7]), in test [3] (setting [8]) and in test [4] (setting [9]) was above 198 µM in each case.

For the molecule `c1ccc(-c2nc(-c3nccc4ccccc34)c3ccc4ccccc4n23)cc1` [5d], the MIC in test [2] (setting [5]), in test [2] (setting [6]), in test [3] (setting [7]), in test [3] (setting [8]) and in test [4] (setting [9]) was above 172 µM throughout.

As to `NNC(=O)c1ccncc1` [isoniazid], in the test on various Mtb strains, the “MIC, literature reported values” is 0.3 to 1.4 µM.

Turning to `[Cl][Fe]([Cl])[Cl]` [FeCl3, reference compound], the “MIC Mtb” value in test [1] was above 394 µM. Further, the MIC in test [3] (setting [8]) and in test [4] (setting [9]) was above 394 µM each time.

For the molecule `CNC(C)C1CCC(N)C(OC2C(N)CC(N)C(OC3OCC(C)(O)C(NC)C3O)C2O)O1` (stereo not shown) [gentamicin, reference compound], the MIC in test [1] came to 4 µM (≈ 1.91 µg/mL).

For the molecule `CO[C@H]1/C=C/O[C@@]2(C)Oc3c(C)c(O)c4c(O)c(c(/C=N/N5CCN(C)CC5)c(O)c4c3C2=O)NC(=O)/C(C)=C\C=C\[C@H](C)[C@H](O)[C@@H](C)[C@@H](O)[C@@H](C)[C@H](OC(C)=O)[C@@H]1C` [rifampicin, reference compound], the MIC is 0.07 µM (≈ 0.0576 µg/mL) in test [1], above 78 µM in test [3] (setting [7]) and 5 µM (≈ 4.11 µg/mL) in test [4] (setting [9]).

In the case of `CN(C)c1ccccc1-c1nc(-c2ccccc2)n2c1ccc1ccccc12` [5h], the MIC in test [2] (setting [5]) was above 127 µM; in test [2] (setting [6]) it was above 127 µM; in test [1], 2 µM (≈ 0.727 µg/mL); in test [3] (setting [7]), above 127 µM; in test [3] (setting [8]), above 127 µM; in test [4] (setting [9]) it was above 127 µM.
